Laboratory results as given in US20240299562A1 (priority 2020, published 2024).
Where two headings read alike, the source gives them in different places. Where a SMILES comes first, the peptide text is derived from it.

Legend:
HME-1 cells = assay: WST-1 cell viability, normal HME-1 cells; type: cell-based, human; details: for IC50: read-out: Absolute IC50
Description: (§1) All commercial cell lines were purchased at ATCC (LGC Standards SARL, France). Cells were seeded in 96-well plates according to their optimal seeding density, varying between 5.000 and 10.000 cells/well. After attachment overnight, 10-point serial titrations (1:5) were prepared in their equivalent complete media as recommended by ATCC, starting from the 10 mM stock solutions. For doxorubicin comprising prodrugs dilutions started from 100 μM, while for the parent compound doxorubicin dilutions started at 10 μM. […] Seventy-two hours later, compounds were removed together with the supernatants and cells were washed once with PBS to remove excess drugs.
(§2) The WST-1 assay for cell proliferation and viability (Roche, Switzerland) was performed according to manufacturer's protocol. Absorbances were measured at 4 hrs using a Perkin Elmer Ensight multiplate reader, equipped with Kaleido 2.0 software (Perkin Elmer, USA). Cell viability was expressed as a percentage compared to non-treated cells. Absolute IC50 values were extrapolated from a non-linear fitting following the Sigmoidal-4PL regression method using Graphpad Prism 7.0. Likewise, maximal efficacy was determined as 100% minus the cell viability determined when cells are incubated in the presence of a compound. For instance, if 20% of the cells survive incubation in the presence of a compound, then the maximal efficacy of that compound is 100%-20%=80%.
(§3) Selectivity indices (SI) were defined as the ratio of the concentration of drug required to kill 50% of the cells in normal (control, non-cancer) cells, divided by the concentration required to exert the same efficacy in tumor cells: SI=IC50 (control cell)/IC50 (cancer cell), or SI=^HME-1IC50/cancer IC50.

MIA PaCa-2 cells = assay: WST-1 cell viability, MIA PaCa-2 pancreatic cancer cells; type: cell-based
Description: as §1, §2, §3

LS 174T cells = assay: WST-1 cell viability, LS 174T colorectal cancer cells; type: cell-based
Description: as §1, §2, §3

HCT-116 cells = assay: WST-1 cell viability, HCT-116 colorectal cancer cells; type: cell-based
Description: as §1, §2, §3

A-172 cells = assay: WST-1 cell viability, A-172 glioblastoma cells; type: cell-based; details: for IC50: read-out: Absolute IC50
Description: as §1, §2, §3

U-87 MG cells = assay: WST-1 cell viability, U-87 MG glioblastoma cells; type: cell-based; details: for IC50: read-out: Absolute IC50
Description: as §1, §2, §3

MDA-MB-231 cells = assay: WST-1 cell viability, MDA-MB-231 triple negative breast cancer cells; type: cell-based; details: for IC50: read-out: Absolute IC50
Description: as §1, §2, §3

DU145 cells = assay: WST-1 cell viability, DU145 prostate cancer cells; type: cell-based
Description: as §1, §2, §3

A2780 Cp cells = assay: WST-1 cell viability, A2780 CpR (cisplatin resistant) ovarian cancer cells; type: cell-based
Description: as §1, §2, §3

A2058 cells = assay: WST-1 cell viability, A2058 melanoma cells; type: cell-based; details: for IC50: read-out: Absolute IC50
Description: as §1, §2, §3

NCI-H292 cells = assay: WST-1 cell viability, NCI-H292 lung cancer cells; type: cell-based
Description: as §1, §2, §3

[1] = test system: Human umbilical vein endothelial cells (HUVEC); assay: WST-1 cell viability, normal HUVEC cells; type: cell-based; details: 72 hrs
Description: as §1, §2, §3

[2] = test system: hiPSC-derived astrocytes (iAstro); assay: WST-1 cell viability, hiPSC-derived astrocytes (iAstro); type: cell-based, human; details: iAstro normal astrocytes, 72 hrs
Description: as §1, §2, §3
hiPSC-derived astrocytes were purchased from Tempo Biosciences (iAstro™). Prior to use, six-well plates were coated with 1 ml GFR Matrigel (1:100˜0.1 mg/ml, Corning #356231) and allowed to polymerize at 37° C. overnight. Three days before assaying, cells were defrosted and seeded onto the GFR Matrigel in iAstro medium, and allowed to recover from defrosting for 48 hrs. The recovery was aided using RevitaCell™ Supplement during the first 24 hrs. After morphological inspection, cells were transferred to 96-well plates and 4-well microscopy vessels (Millipore), coated with Poly-L-lysine (50 μg/ml, P2533, Sigma Aldrich) and mouse laminin (4 ng/ml, L2020, Sigma Aldrich), using StemPro Accutase reagent (Invitrogen). Following overnight recovery, iAstro's were exposed to the same treatment protocol described above.

[3] = WST-1 (Table 4), read-out: Absolute IC50

COc1cccc2c1C(=O)c1c(O)c3c(c(O)c1C2=O)C[C@@](O)(C(=O)CO)C[C@@H]3O[C@H]1C[C@H](NC(=O)[C@@H]2CCCN2C(=O)[C@H](CC(C)C)NC(=O)[C@H](CC(C)C)NC(=O)[C@H](C)NC(=O)CP(=O)(O)O)[C@H](O)[C@H](C)O1 [PhAc-ALLP-Dox, PhAc-ALLP-Doxorubicin] (HELM PEPTIDE1{[O=C(CP(=O)(O)O)[*:2]].A.L.L.P.[COc1cccc2c1C(=O)c1c(O)c3c(c(O)c1C2=O)C[C@@](O)(C(=O)CO)C[C@@H]3O[C@H]1C[C@H](N[*:1])[C@H](O)[C@H](C)O1]}$$$$V2.0)
SI = HME-1 IC50/cancer IC50 (HME-1 cells; HME-1 normal cells against themselves (Table 3)): 1.00
IC50 (HME-1 cells; HME-1 normal cells, 72 hrs continuous drug exposure, WST-1 (Table 1)): 36.9 µM
IC50 (HME-1 cells; HME-1 normal cells, 72 hrs, WST-1 (Table 4)): 36.9 µM
Maximal efficacy (HME-1 cells; HME-1 normal cells, 72 hrs, WST-1, cytotoxicity at highest concentration (Table 5)): 59.5%
SI = HME-1 IC50/cancer IC50 (MIA PaCa-2 cells; MIA PaCa-2 (PaC) vs HME-1 (Table 3)): 0.79
IC50 (MIA PaCa-2 cells; MIA PaCa-2 (PaC), 72 hrs, WST-1 (Table 1), read-out: Absolute IC50): 46.8 µM
Maximal efficacy, cytotoxicity (%) at 100 μM (MIA PaCa-2 cells; MIA PaCa-2 (PaC), 72 hrs, WST-1 (Table 2)): 65.41%
SI = HME-1 IC50/cancer IC50 (LS 174T cells; LS 174T (CrC) vs HME-1 (Table 3)): 1514.9
IC50 (LS 174T cells; LS 174T (CrC), 72 hrs, WST-1 (Table 1), read-out: Absolute IC50): 0.02 µM
Maximal efficacy, cytotoxicity (%) at 100 μM (LS 174T cells; LS 174T (CrC), 72 hrs, WST-1 (Table 2)): 54.86%
SI = HME-1 IC50/cancer IC50 (HCT-116 cells; HCT-116 (CrC) vs HME-1 (Table 3)): 3.34
IC50 (HCT-116 cells; HCT-116 (CrC), 72 hrs, WST-1 (Table 1), read-out: Absolute IC50): 11.1 µM
Maximal efficacy, cytotoxicity (%) at 100 μM (HCT-116 cells; HCT-116 (CrC), 72 hrs, WST-1 (Table 2)): 67.49%
SI = HME-1 IC50/cancer IC50 (A-172 cells; A-172 (GBM) vs HME-1 (Table 3)): 30.54
SI = HUVEC IC50 / cancer IC50 (A-172 cells; A-172 (GBM), * towards HUVEC cells (Table 6)): *34.4
SI = iAstro IC50 / cancer IC50 (A-172 cells; A-172 (GBM), ** towards hiPSCs (iAstro) (Table 6)): **15.8
SI = normal IC50 / cancer IC50 (A-172 cells; A-172 (GBM), selectivity towards HME-1 cells (Table 6)): 30.5
IC50 (A-172 cells; A-172 (GBM), 72 hrs, WST-1 (Table 1)): 1.21 µM
Maximal efficacy, cytotoxicity (%) at 100 μM (A-172 cells; A-172 (GBM), 72 hrs, WST-1 (Table 2)): 98.08%
IC50 (A-172 cells; A-172 (GBM), 72 hrs, WST-1 (Table 4)): 1.29 µM
Maximal efficacy (A-172 cells; A-172 (GBM), 72 hrs, WST-1 (Table 5)): 80.9%
Selectivity index towards hiPSC-derived astrocytes, GBM (A-172 cells; GBM indication as a whole (A-172 and U-87 MG), vs iAstro): 14.9±0.8
SI = HME-1 IC50/cancer IC50 (U-87 MG cells; U-87 MG (GBM) vs HME-1 (Table 3)): 128.53
SI = HUVEC IC50 / cancer IC50 (U-87 MG cells; U-87 MG (GBM), * towards HUVEC cells (Table 6)): *144.9
SI = iAstro IC50 / cancer IC50 (U-87 MG cells; U-87 MG (GBM), ** towards hiPSCs (iAstro) (Table 6)): **14.1
SI = normal IC50 / cancer IC50 (U-87 MG cells; U-87 MG (GBM), selectivity towards HME-1 cells (Table 6)): 128.5
IC50 (U-87 MG cells; U-87 MG (GBM), 72 hrs, WST-1 (Table 1)): 0.29 µM
Maximal efficacy, cytotoxicity (%) at 100 μM (U-87 MG cells; U-87 MG (GBM), 72 hrs, WST-1 (Table 2)): 94.35%
IC50 (U-87 MG cells; U-87 MG (GBM), 72 hrs, WST-1 (Table 4)): 1.44 µM
Maximal efficacy (U-87 MG cells; U-87 MG (GBM), 72 hrs, WST-1 (Table 5)): 97.1%
SI = HME-1 IC50/cancer IC50 (MDA-MB-231 cells; MDA-MB-231 (TNBC) vs HME-1 (Table 3)): 3.85
SI = HUVEC IC50 / cancer IC50 (MDA-MB-231 cells; MDA-MB-231 (TNBC), * towards HUVEC cells (Table 6)): *23.6
SI = normal IC50 / cancer IC50 (MDA-MB-231 cells; MDA-MB-231 (TNBC), selectivity towards HME-1 cells (Table 6)): 20.9
IC50 (MDA-MB-231 cells; MDA-MB-231 (TNBC), 72 hrs, WST-1 (Table 1)): 9.57 µM
Maximal efficacy, cytotoxicity (%) at 100 μM (MDA-MB-231 cells; MDA-MB-231 (TNBC), 72 hrs, WST-1 (Table 2)): 71.20%
IC50 (MDA-MB-231 cells; MDA-MB-231 (TNBC), 72 hrs, WST-1 (Table 4)): 9.57 µM
Maximal efficacy (MDA-MB-231 cells; MDA-MB-231 (TNBC), 72 hrs, WST-1 (Table 5)): 71.2%
SI = HME-1 IC50/cancer IC50 (DU145 cells; DU145 (PrC) vs HME-1 (Table 3)): 5.25
IC50 (DU145 cells; DU145 (PrC), 72 hrs, WST-1 (Table 1), read-out: Absolute IC50): 7.02 µM
Maximal efficacy, cytotoxicity (%) at 100 μM (DU145 cells; DU145 (PrC), 72 hrs, WST-1 (Table 2)): 79.25%
SI = HME-1 IC50/cancer IC50 (A2780 Cp cells; A2780 Cp (OvC) vs HME-1 (Table 3)): 257.22
Maximal efficacy, cytotoxicity (%) at 100 μM (A2780 Cp cells; A2780 Cp (OvC), 72 hrs, WST-1 (Table 2)): 85.27%
IC50 (A2780 Cp cells; A2780 Cp (OvC, cisplatin resistant), 72 hrs, WST-1 (Table 1), read-out: Absolute IC50): 0.14 µM
SI = HME-1 IC50/cancer IC50 (A2058 cells; A2058 (Melanoma) vs HME-1 (Table 3)): 298.19
SI = HUVEC IC50 / cancer IC50 (A2058 cells; A2058 (Melanoma), * towards HUVEC cells (Table 6)): *336.1
SI = normal IC50 / cancer IC50 (A2058 cells; A2058 (Melanoma), selectivity towards HME-1 cells (Table 6)): 298.2
IC50 (A2058 cells; A2058 (Melanoma), 72 hrs, WST-1 (Table 1)): 0.12 µM
Maximal efficacy, cytotoxicity (%) at 100 μM (A2058 cells; A2058 (Melanoma), 72 hrs, WST-1 (Table 2)): 97.56%
IC50 (A2058 cells; A2058 (Melanoma), 72 hrs, WST-1 (Table 4)): 0.12 µM
Maximal efficacy (A2058 cells; A2058 (Melanoma), 72 hrs, WST-1 (Table 5)): 97.6%
SI = HME-1 IC50/cancer IC50 (NCI-H292 cells; NCI-H292 (NSCLC) vs HME-1 (Table 3)): 6.30
IC50 (NCI-H292 cells; NCI-H292 (NSCLC), 72 hrs, WST-1 (Table 1), read-out: Absolute IC50): 5.86 µM
Maximal efficacy, cytotoxicity (%) at 100 μM (NCI-H292 cells; NCI-H292 (NSCLC), 72 hrs, WST-1 (Table 2)): 55.15%
IC50 [1, 3]: 41.6 µM
Maximal efficacy ([1]; WST-1 (Table 5)): 53.1%
IC50 [2, 3]: 20.3 µM
Maximal efficacy ([2]; WST-1 (Table 5)): 68.5%
